Data published in patent publication US20230346827A1 (priority 2020, published 2023).

Key:
[1] = system: PBMC and HUVEC + LPS (TLR4 ligand); experiment: BioMAP LPS system; assay type: cell-based, human; settings: annotated relative to vehicle controls
Excerpt: (§1) Cell types and stimuli used in each system are as follows: 3C system [HUVEC + (IL-1β, TNFα and IFNy)], 4H system [HUVEC + (IL-4 and histamine)], LPS system [PBMC and HUVEC + LPS (TLR4 ligand)], SAg system [PBMC and HUVEC + TCR ligands], BT system [CD19+ B cells and PBMC + (α-IgM and TCR ligands)], BF4T system [bronchial epithelial cells and HDFn + (TNFα and IL-4)], BE3C system [bronchial epithelial cells + (IL-1β, TNFα and IFNy)], CASM3C system [coronary artery smooth muscle cells + (IL-1 β, TNFα and IFNy)], HDF3CGF system [HDFn + (IL-1β, TNFα, IFNy, EGF, bFGF and PDGF-BB)], KF3CT system [keratinocytes and HDFn + (IL-1β, TNFα, IFNy and TGFβ)], MyoF system [differentiated lung myofibroblasts + (TNFα and TGFβ)] and Mphg system [HUVEC and M1 macrophages + Zymosan (TLR2 ligand)].
(§2) Systems are derived from either single cell types or co-culture systems. Adherent cell types are cultured in 96 or 384-well plates until confluence, followed by the addition of PBMC (SAg and LPS systems). […] Soluble factors from supernatants are quantified using either HTRF® detection, bead-based multiplex immunoassay or capture ELISA. Overt adverse effects of test agents on cell proliferation and viability (cytotoxicity) are detected by sulforhodamine B (SRB) staining, for adherent cells, and alamarBlue® reduction for cells in suspension. […]

[2] = system: ALS patients; experiment: Blood myoglobin, creatine kinase and HGF in ALS patients, dextran sulfate 1 mg/kg s.c. weekly for five weeks (Example 15); assay type: in vivo, human; set-up: circulating HGF, peak: unit not given here
Description: A clinical trial in the form of a Phase IIa, single-center, open label, single-arm study where the safety, tolerability and possible efficacy of subcutaneously administered dextran sulfate was evaluated in patients with ALS of intermediate progression rate. The clinical trial was conducted at the Sahlgrenska University Hospital, Gothenburg, Sweden and was overseen and approved by the Ethics Committee of the University of Gothenburg and by the Swedish Medical Products Agency.
Dextran sulfate (Tikomed AB, Viken, Sweden, WO 2016/076780) was administered at 1 mg/kg by […] subcutaneous injection once a week for five weeks to 13 human patients suffering from ALS.
Blood samples were drawn at defined study intervals by a venous catheter into vacutainer tubes. Laboratory analyses of blood plasma were performed immediately after collection by the Clinical Chemistry Laboratory at the Sahlgrenska University Hospital.

[3] = system: HUVEC and M1 macrophages + Zymosan (TLR2 ligand); experiment: BioMAP Mphg system; assay type: cell-based, human; settings: annotated relative to vehicle controls
Excerpt: as §1, §2

[4] = system: SARS-CoV-2; settings: incubation of SARS-CoV-2 with exogenous LMW-DS; cited from earlier work
[5] = system: bronchial epithelial cells and HDFn + (TNFα and IL-4); experiment: BioMAP BF4T system; assay type: cell-based, human; settings: annotated relative to vehicle controls
Excerpt: as §1, §2

[6] = system: HUVEC + (IL-1β, TNFα and IFNy); experiment: BioMAP 3C system; assay type: cell-based, human; settings: annotated relative to vehicle controls
Excerpt: as §1, §2

[7] = molecular target: oligomeric amyloid-β / PrP^c interaction (Homo sapiens, UniProt P04156); assay type: binding
[8] = system: differentiated lung myofibroblasts + (TNFα and TGFβ); experiment: BioMAP MyoF system; assay type: cell-based, human; settings: annotated relative to vehicle controls
Excerpt: as §1, §2

[9] = system: SARS-CoV-2; settings: incubation of SARS-CoV-2 with exogenous LMW-DS; cited from earlier work; remark: listed apart in the source
[10] = system: ALS patients; experiment: Serum lactate in ALS patients, dextran sulfate 2 mg/kg s.c. weekly for ten weeks (Example 14); assay type: in vivo, human; set-up: serum lactate levels: unit not given here
Description: Dextran sulfate (ILB®, Tikomed AB, Viken, Sweden, WO 2016/076780) was administered at 2 mg/kg by […] subcutaneous injection once a week for ten weeks to 8 human patients suffering from ALS.
Peripheral venous blood samples were collected from patients before (week 0) and after dextran sulfate administration (week 5 and week 10) after at least 15 minutes of complete rest, using the standard tourniquet procedure, from the antecubital vein into a single VACUETTE® polypropylene tube containing serum separator and clot activator (Greiner-Bio One GmbH, Kremsmunster, Austria). After 30 mins at room temperature (20-25° C.), blood withdrawals were centrifuged at 1,890 × g for 10 min to get serum aliquots.
A serum aliquot of 500 µl was supplemented with 1 ml of HPLC-grade acetonitrile, vortexed for 60 secs, centrifuged at the maximum speed in a top-bench centrifuge to precipitate proteins. Supernatants were washed with large volumes of HPLC-grade chloroform to remove organic solvent, centrifuged and the upper aqueous phases were transferred to different tubes, clearly labeled to identify the sample and stored at -80° C. until analyzed to determine different water-soluble compounds.

sodium salt of dextran sulfate [LMW-DS]
Decreased biomarker activity [1]: sTNFα | Increased biomarker activity [1]: IL-8 | reduction in creatine kinase levels ([2]; after 4 weeks of treatment): 13.3% | serum creatine kinase levels ([2]; after 4 weeks of treatment): 6.2 ± 5.08 µkat/L | serum myoglobin levels ([2]; after 4 weeks of treatment): 103.69 ± 72.16 µg/L | reduction in myoglobin levels ([2]; after 4 weeks of treatment vs Day 1): 30% | circulating HGF, peak ([2]; peak at 2.5 hours after injection): 37863 ± 14235 | Increased biomarker activity [3]: IL-8, CD69 | SARS-CoV-2 attachment to human epithelial cell lines [4]: reduces attachment | Increased biomarker activity [5]: Eot3 | Increased biomarker activity [6]: IL-8 | Competable binding (%) [7]: 85±4% | Hill coefficient [7]: 1.00±0.21 | IC50 [7]: 0.42 ± 0.16 µg/mL | Increased biomarker activity [8]: IL-8 | viral replication within ex vivo human lung tissue explants [9]: reduced viral replication | increase of serum lactate levels vs Week 0 ([10]; after 5 weeks of treatment): 29.8% | serum lactate levels ([10]; after 5 weeks of treatment): 2.31±1.02 | increase of serum lactate levels vs Week 0 ([10]; after 10 weeks of treatment): 70% | serum lactate levels ([10]; after 10 weeks of treatment): 3.02±1.59
